This is an account of results in ChEMBL document CHEMBL1201862, “PubChem BioAssay data set” (2004).

SMILES strings stand for the structures.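 Values below derive from 48-hour exposures of cells grown in 96-well plates, with endpoints linearly interpolated between the two concentrations bracketing the appropriate inhibition level. The concentration for 50% growth inhibition is given as GI50.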 The source made the active and inactive calls. Cut-off read from the data, not from the text of the source: active = GI50 up to about 1.1 µM and inactive = higher.

Common to all, as to test: growth of human tumour cells (NCI), 48 h
For assay [1], the system named is SF-539.
Assay [2] deals with OVCAR-4.
For assay [3], the system named is SNB-75.
The subject of assay [4] is LOX IMVI.
For assay [5], the system named is OVCAR-5.
The subject of assay [6] is U-251.
Assay [7] deals with IGROV-1.
Assay [8] concerns HT-29.
The subject of assay [9] is SF-295.
The test system of assay [10] is M14.
For assay [11], the system named is SK-MEL-28.
Assay [12] relates to K562.
In assay [13] the test system is EKVX.
The test system of assay [14] is HOP-92.
In assay [15] the test system is NCI-H23.
Assay [16] relates to OVCAR-8.
The subject of assay [17] is CCRF-CEM.
Assay [18] has as its system SK-OV-3.
Assay [19] has as its system NCI-H226.
For assay [20], the system named is Malme-3M.

`CC(=O)NC1CC(C(C)(C)NC(C)=O)CC=C1C` (stereo unspecified): the GI50 in assay [1], in assay [2], in assay [3], in assay [4], in assay [5] and in [6] was > 100 µM (inactive) in each case. Besides, the GI50 in assay [7], in assay [8], in assay [9], in [10], in assay [11] and in assay [12] was > 100 µM (inactive) throughout. The GI50 in assay [13], in [14], in [15], in assay [16], in assay [17] and in assay [18] was > 100 µM (inactive) throughout.
`O=C1C(=CNC(=S)c2ccccc2)C(=O)c2ccccc21`: the GI50 in assay [1] is 58.5 µM (inactive); in assay [2], 38.1 µM (inactive); in assay [3], 58.9 µM (inactive); in assay [4], 43.1 µM (inactive); in assay [5] it was > 100 µM (inactive); in assay [6], 64.9 µM (inactive). The GI50 in [7] is 29.4 µM (inactive); in assay [8], > 100 µM (inactive); in [9], 91 µM (inactive); in assay [10] it was 65.6 µM (inactive); in [11], > 100 µM (inactive); in assay [12] it was 30.1 µM (inactive). Moreover, the GI50 in assay [13] is 60.8 µM (inactive); in assay [14], 40.7 µM (inactive); in [19], > 100 µM (inactive); in [15] it was 51.5 µM (inactive); in [16] it was 54.6 µM (inactive); in [17] it was 25 µM (inactive). In addition, the GI50 in assay [18] was 21.7 µM (inactive).
`O=C(c1ccccc1)[C@@H]1C[C@H](Sc2ccccc2)c2cc(Cl)ccc2N1`: the GI50 in assay [1] was 16.9 µM (inactive); in assay [2], 37.5 µM (inactive); in assay [3], 18.8 µM (inactive); in assay [4], 23.5 µM (inactive); in [5] it was 37.6 µM (inactive); in assay [6] it was 21.2 µM (inactive). Moreover, the GI50 in [7] is 32.3 µM (inactive); in assay [8], 22.2 µM (inactive); in assay [9] it was 28.1 µM (inactive); in [10], 28.2 µM (inactive); in assay [20], 32.4 µM (inactive); in assay [11], 17.9 µM (inactive). In addition, the GI50 in [12] is 18.9 µM (inactive); in assay [13], 10 µM (inactive); in assay [19] it was 25.6 µM (inactive); in [15] it was 20.2 µM (inactive); in assay [16] it was 23.4 µM (inactive).
In the case of `O=C1N[C@@H]([C@H](CCCCCO)OC(=O)c2ccccc2)CO1`, the GI50 in assay [1], in assay [2], in assay [3], in [4], in assay [5] and in [6] was > 100 µM (inactive) each time. Also, the GI50 in assay [7], in assay [8], in assay [9], in assay [11], in [12] and in [13] was > 100 µM (inactive) in each case. Further, the GI50 in assay [14], in [19], in assay [16], in assay [17] and in assay [18] was > 100 µM (inactive) throughout.
As to `CC(C)C1CN(C(=O)OCc2ccccc2)C2N1C(=O)C2(C)OCc1ccccc1` (stereo unspecified), the GI50 was 56 µM (inactive) in assay [1]; 41.9 µM (inactive) in assay [2]; 16.7 µM (inactive) in assay [3]; 27.2 µM (inactive) in assay [4]; 41.7 µM (inactive) in assay [6]; 35.9 µM (inactive) in assay [7]. For the same compound, the GI50 in assay [8] is 42.2 µM (inactive); in [9], 34.8 µM (inactive); in assay [10], 36.1 µM (inactive); in [20], 31.8 µM (inactive); in assay [11], > 100 µM (inactive); in [12] it was 34.8 µM (inactive). In addition, the GI50 in assay [13] is 34 µM (inactive); in [19] it was 22 µM (inactive); in [15], 24.5 µM (inactive); in assay [16] it was 45.4 µM (inactive); in [17], 28.1 µM (inactive).
In the case of `CC12Nc3ccccc3N1C(=O)c1ccccc12` (stereo unspecified), the GI50 in assay [1], in [2], in [4], in assay [5], in assay [6] and in assay [7] was > 100 µM (inactive) in each case. The GI50 in assay [8], in assay [9], in assay [10], in assay [11], in [12] and in [13] was > 100 µM (inactive) throughout. For the same compound, the GI50 in assay [14], in [19], in assay [15], in assay [16], in assay [17] and in [18] was > 100 µM (inactive) throughout.
`CN(c1ccccc1)c1c(-c2ccccc2)c(=O)oc2c1ccc1occc12`: the GI50 in assay [1] was > 100 µM (inactive); in assay [2] it was > 81.8 µM (inactive); in assay [3] it was > 100 µM (inactive); in assay [4] it was > 100 µM (inactive); in assay [6], > 100 µM (inactive); in [7] it was > 100 µM (inactive). Moreover, the GI50 in assay [8] is > 95.7 µM (inactive); in assay [9], > 100 µM (inactive); in assay [20] it was > 100 µM (inactive); in assay [11], > 100 µM (inactive); in assay [12], > 100 µM (inactive); in [13] it was > 100 µM (inactive). Also, the GI50 was 0.348 µM (active) in assay [19]; > 100 µM (inactive) in assay [15]; > 100 µM (inactive) in assay [16]; > 100 µM (inactive) in [17]; > 100 µM (inactive) in [18].
For the compound `COc1ccccc1N1C(Cl)C(=O)C1c1c[nH]c2ccccc12` (stereo unspecified), the GI50 is > 100 µM (inactive) in assay [1]; > 100 µM (inactive) in [2]; > 100 µM (inactive) in assay [3]; 13.2 µM (inactive) in [5]; > 100 µM (inactive) in assay [6]; > 100 µM (inactive) in assay [7]. Moreover, the GI50 in assay [8], in assay [9], in [10], in assay [11], in [12] and in assay [13] was > 100 µM (inactive) each time. Also, the GI50 in assay [14], in assay [15], in [16], in [17] and in [18] was > 100 µM (inactive) each time.
On to `CC1(C)CC(=O)C2=C(C1)NC1=C(C(=O)CC(C)(C)C1)C2c1ccc([N+](=O)[O-])cc1`, for which the GI50 is > 100 µM (inactive) in assay [1]; > 100 µM (inactive) in assay [2]; 16.7 µM (inactive) in assay [3]; > 100 µM (inactive) in assay [4]; > 100 µM (inactive) in assay [5]; > 100 µM (inactive) in assay [6]. For the same compound, the GI50 in assay [7], in [8], in assay [9], in assay [10], in [11] and in assay [12] was > 100 µM (inactive) each time. The GI50 in [13], in [14], in [19], in assay [15], in assay [16] and in assay [18] was > 100 µM (inactive) in each case.
For `O=C(Nc1ccc([N+](=O)[O-])cc1[N+](=O)[O-])C(=O)C(C(=O)c1ccc2ccccc2c1)C1OC(=O)c2ccccc21` (stereo unspecified), the GI50 in [1] is 4.5 µM (inactive); in assay [2], 12.8 µM (inactive); in assay [3] it was 14 µM (inactive); in assay [4], 16.7 µM (inactive); in assay [5], 20.2 µM (inactive); in [6], 4.33 µM (inactive). The GI50 was 19.8 µM (inactive) in [7]; 16.7 µM (inactive) in assay [8]; 13.5 µM (inactive) in assay [9]; 15.9 µM (inactive) in assay [10]; 20 µM (inactive) in [11]; 14 µM (inactive) in [12]. For the same compound, the GI50 was 15.5 µM (inactive) in assay [13]; 17.8 µM (inactive) in assay [14]; 2.69 µM (inactive) in assay [19]; 7.29 µM (inactive) in assay [15]; 10 µM (inactive) in assay [16]; 9.51 µM (inactive) in assay [17]. For the same compound, in assay [18], the GI50 was 13.5 µM (inactive).
`CC(C)(CCCCC(C)(C)NC1=NCCO1)NC1=NCCO1`: the GI50 in assay [1], in assay [2], in assay [3], in assay [4], in [5] and in assay [6] was > 10 µM (inactive) throughout. Also, the GI50 in assay [7], in assay [8], in [9], in assay [10], in assay [20] and in assay [11] was > 10 µM (inactive) throughout. Also, the GI50 in [12], in assay [13], in assay [19], in assay [15], in assay [16] and in assay [17] was > 10 µM (inactive) throughout. In [18], the GI50 was > 10 µM (inactive).
